ChEMBL document CHEMBL3244191, “Study of the structural requirements for dopa potentiation and oxotremorine antagonism by L-prolyl-L-leucylglycinamide” (J Med Chem, 1978)
Calls of active or inactive are those of the source. The calls are words filed in the database; no cut-off is given here. Square brackets hold non-standard residues; d marks the D form. Peptide text beside a SMILES is read from it. azaGly = NNC(=O)O; βAla = NCCC(=O)O

Columns and labels:
Format in all cases: functional, organism-based
Mus musculus [1] = assay: Suppression of oxotremorine-induced tremor in ICR mouse at 20 mg/kg, ip pretreated for 1 hr followed by oxotremorine-challenge; design: dose 20 mg/kg
Mus musculus [2] = assay: Potentiation of dl-DOPA-induced behavioral effects in ICR mouse assessed as moderate piloerection, salivation, marked increased motor activity and irritability at 10 mg/kg, ip administered 1 hr prior to dl-DOPA-challenge measured for 1 hr; design: dose 10 mg/kg
Mus musculus [3] = assay: Potentiation of dl-DOPA-induced behavioral effects in ICR mouse assessed as moderate piloerection, salivation, marked increased motor activity and irritability at 2.5 mg/kg, ip administered 1 hr prior to dl-DOPA-challenge measured for 1 hr; design: dose 2.5 mg/kg
Mus musculus [4] = assay: Potentiation of dl-DOPA-induced behavioral effects in ICR mouse assessed as slight piloerection, slight salivation and slight increased motor activity at 2.5 mg/kg, ip administered 1 hr prior to dl-DOPA-challenge measured for 1 hr; design: dose 2.5 mg/kg
Mus musculus [5] = assay: Potentiation of dl-DOPA-induced behavioral effects in ICR mouse assessed as slight piloerection, slight salivation and slight increased motor activity at 10 mg/kg, ip administered 1 hr prior to dl-DOPA-challenge measured for 1 hr; design: dose 10 mg/kg
Mus musculus [6] = assay: Suppression of oxotremorine-induced tremor in ICR mouse at 10 mg/kg, ip pretreated for 1 hr followed by oxotremorine-challenge; design: dose 10 mg/kg
Mus musculus [7] = assay: Potentiation of dl-DOPA-induced behavioral effects in ICR mouse assessed as marked piloerection, profuse salivation, marked increased irritability and reactivity, jumping, squeaking and aggressive fighting at 0.1 mg/kg, ip administered 1 hr prior to dl-DOPA-challenge measured for 1 hr; design: dose 0.1 mg/kg
Mus musculus [8] = assay: Potentiation of dl-DOPA-induced behavioral effects in ICR mouse assessed as marked piloerection, profuse salivation, marked increased irritability and reactivity, jumping, squeaking and aggressive fighting at 1 mg/kg, ip administered 1 hr prior to dl-DOPA-challenge measured for 1 hr; design: dose 1 mg/kg
Mus musculus [9] = assay: Suppression of oxotremorine-induced tremor in ICR mouse at 1 mg/kg, ip pretreated for 1 hr followed by oxotremorine-challenge; design: dose 1 mg/kg
Mus musculus [10] = assay: Suppression of oxotremorine-induced tremor in ICR mouse at 4 mg/kg, ip pretreated for 1 hr followed by oxotremorine-challenge; design: dose 4 mg/kg
Mus musculus [11] = assay: Potentiation of dl-DOPA-induced behavioral effects in ICR mouse assessed as marked piloerection, profuse salivation, marked increased irritability and reactivity, jumping, squeaking and aggressive fighting at 10 mg/kg, ip administered 1 hr prior to dl-DOPA-challenge measured for 1 hr; design: dose 10 mg/kg

Structure (SMILES)	Activity (Mus musculus [1])	Activity (Mus musculus [2])	Activity (Mus musculus [5])	also measured
CC(=O)CNC(=O)[C@H](CC(C)C)NC(=O)[C@@H]1CCCN1	inactive	Active	–	Activity (Mus musculus [3]): Active
CC(C)C[C@H](NC(=O)C1CCCC1)C(=O)NCC(N)=O	inactive	Active	–	Activity (Mus musculus [4]): Active
CC(C)C[C@H](NC(=O)[C@@H]1CCCN1)C(=O)N1CSC[C@@H]1C(N)=O	inactive	–	Active	–
CC(C)C[C@H](NC(=O)[C@@H]1CCCN1)C(=O)NCC#N	inactive	Active	–	Activity (Mus musculus [4]): Active
CC(C)C[C@H](NC(=O)[C@H]1CSCN1)C(=O)NCC(N)=O	inactive	–	Active	Activity (Mus musculus [6]): inactive
CC(C)C[C@H](NC(=O)[C@@H]1CCCN1)C(=O)NCC(N)=O (H-Pro-Leu-Gly-NH2)	Active	–	–	Activity (Mus musculus [7]): Active; Activity (Mus musculus [8]): Active; Activity (Mus musculus [9]): inactive; Activity (Mus musculus [10]): Active; Activity (Mus musculus [11]): Active
CNC(=O)CNC(=O)[C@H](CC(C)C)NC(=O)[C@@H]1CCCN1 (H-Pro-Leu-Gly-NHMe)	inactive	–	Active	–
CC(C)C[C@H](NC(=O)[C@@H]1CCCN1)C(=O)N1CCC[C@H]1C(N)=O (H-Pro-Leu-Pro-NH2)	Active	–	Active	Activity (Mus musculus [6]): inactive
CC(C)C[C@H](NC(=O)[C@@H]1CCCN1)C(=O)NNC(N)=O (H-Pro-Leu-[azaGly]-NH2)	inactive	–	Active	–
CC(C)C[C@H](NC(=O)[C@@H]1CCCN1)C(=O)NCCC(N)=O (H-Pro-Leu-[βAla]-NH2)	inactive	–	Active	–
CC(C)C[C@H](NC(=O)[C@@H]1CCCN1)C(=O)N1CCSC1C(N)=O (single isomer, unassigned; (-))	inactive	Active	–	Activity (Mus musculus [4]): Active
CC(C)C[C@H](NC(=O)[C@@H]1CCCN1)C(=O)N1CCSC1C(N)=O (stereo in doubt; 9)	inactive	–	Active	–
